ChEMBL document CHEMBL4346695, “Thiophenol-formaldehyde triazole causes apoptosis induction in ovary cancer cells and prevents tumor growth formation in mice model” (2019)
Activity calls are given as the source filed them.

Legend:
Caov-3 cell line = experiment: Growth inhibition of human Caov3 cells incubated for 48 hrs by MTT assay; format: functional, cell-based
Homo sapiens = species: Homo sapiens; experiment: Growth inhibition of human ES2 cells incubated for 48 hrs by MTT assay; format: functional
Caov-4 = experiment: Growth inhibition of human Caov4 cells incubated for 48 hrs by MTT assay; format: functional, cell-based

Measured: growth inhibition (GI)

Sc1ccccc1COCc1cn(-c2c(Cl)cc(Cl)cc2Cl)nn1
active: Caov-3 cell line | Homo sapiens | Caov-4

FC(F)(F)c1ccccc1-n1cc(COCc2ccccc2S)nn1
active: Caov-3 cell line | Homo sapiens | Caov-4
